Structures can show the parent of a compound that is named as a salt. Where two headings read alike, the source gives them in different places.
Columns and labels:
[1] = test system: leukaemia cells; conditions: cited from earlier work
[2] = target: T1, c-Abl (Homo sapiens, UniProt P00519); assay: Abl filter-binding kinase assay (Abtide, [γ-32P]ATP); assay type: biochemical; conditions: isolated Abl; calculated from ID50, ATP-competitive; E0 0.005, S0 0.012 µM
T1 construct: His tag; purchased Upstate (Lake Placid, NY, USA)
Description: (§1) Baculovirus-produced recombinant purified his-tagged active against human Src and Abl were purchased from Upstate (Lake Placid, NY, USA).
(§2) Src activity was measured in a filter-binding assay using the Src Assay Kit (Upstate, Lake Placid, NY, USA), according to the manufacturer's protocol, using the specific Src peptide substrate [[…]] in the presence of 0.125 pmol of Src and 0.160 pmol of [γ-^32P]ATP. Abl activity was measured in a filter-binding assay using an Abl specific peptide substrate (Abtide, Upstate). Reaction conditions were (in a final volume of 10 µl): 25 mM Tris-HCl pH 7.5, 1 mM DTT, 0.012 µM [γ-^32P]ATP, 0.022 µM c-Abl. Reactions were incubated 10 min at 30°C.The samples (9 µl) were spotted on paper cellulose filters which were washed according to the manufacturer's protocol. Filter-bound radioactivity was measured by liquid scintillation with a Microbeta-Trilux apparatus (PerkinElmer, Waltham, MA, USA).
(§3) The ID50 were converted to Ki according to a competitive mechanism with respect to the substrate ATP. […] Since (i) the ATP concentration was limiting, i.e., [ATP], Km(ATP), and (ii) the enzyme concentration was not negligible with respect to the ATP concentration, the classical Cheng-Prusoff relationship was not applicable. Consequently, Ki values were calculated according to [drawing 3] (2) where S0 is the concentration of the competing substrate (ATP) and E0 is the concentration of the enzyme. Each experiment was done in triplicate and mean values were used for the interpolation. Curve fitting was performed with the program GraphPad Prism.

[3] = target: T2, c-Src (Homo sapiens, UniProt P12931); assay: Src filter-binding kinase assay (Src Assay Kit); assay type: biochemical; conditions: isolated Src; calculated from ID50, ATP-competitive; E0 0.005, S0 0.012 µM
T2 construct: His tag; purchased Upstate (Lake Placid, NY, USA)
Description: as §1, §2, §3

[4] = test system: A2C12; assay: MTS cell viability assay; assay type: cell-based, mouse; conditions: Mus musculus
Description: (§4) Three human and eleven murine cancer cell lines were used. The human NSCLC cell line A549 (ACC 107) and the human colorectal carcinoma cell line CaCo2 (ACC 169) were obtained from Deutsche Sammlung von Mikroorganismen und Zellkulturen (DSMZ, Braunschweig, Germany). The human hepatocellular carcinoma cell line HepG2 (HB-8065) was obtained from American Type Culture Collection (Manassas, VA, USA). The 11 murine NSCLC cell lines were established as described recently. Cells were grown in monolayer cultures in DMEM containing 10% foetal calf serum, 4 mmol/l L-glutamine and 2% Penicillin/Streptomycin at 37°C in a humidified atmosphere of 95% air and 5% CO2.
(§5) Cell culture viability was monitored by CellTiter96® AQueous One Solution Cell Proliferation Assay (Promega GmbH, Mannheim, Germany). The cells were seeded in triplicates in 96-well microtitre plates and treated with the dual kinase inhibitors or vehicle (0.2% DMSO). After 24 h or 96 h of treatment the MTS tetrazolium reagent was added to the cells and incubated for 1 h. Absorbance at 490 nm was assayed with a Victor3 Wallac 1420 Multilabel counter (PerkinElmer, Waltham, MA, USA).

[5] = test system: BetaD5; assay: MTS cell viability assay; assay type: cell-based, mouse; conditions: Mus musculus
Description: as §4, §5

[6] = test system: GammaA3; assay: MTS cell viability assay; assay type: cell-based, mouse; conditions: Mus musculus
Description: as §4, §5

[7] = test system: GammaD12; assay: MTS cell viability assay; assay type: cell-based, mouse; conditions: Mus musculus, MTS
Description: as §4, §5

[8] = test system: A549; assay: MTS cell viability assay; assay type: cell-based, human; conditions: Homo sapiens
Description: as §4, §5

[9] = test system: CaCo2; assay: MTS cell viability assay; assay type: cell-based, human; conditions: Homo sapiens
Description: as §4, §5

[10] = test system: HepG2; assay: MTS cell viability assay; assay type: cell-based, human; conditions: Homo sapiens
Description: as §4, §5

[11] = test system: A2C12; assay: Cell cycle analysis by flow cytometry; assay type: cell-based, mouse; conditions: IC50 concentration, 96 h
Description: (§6) CycleTEST™ PLUS DNA Reagent Kit (Becton Dickinson GmbH, Heidelberg, Germany) for cell cycle analysis was used, according to the instructions of the manufacturer. Briefly, the cells were harvested with trypsin, washed with PBS, and resuspended in CycleTEST Buffer. The cells were centrifuged and resuspended in solution A. After incubation for 10 min at room temperature, solution B was added and incubated. After adding solution C, the samples were incubated at 4°C protected from light. The samples were stored on ice and protected from light until analysis by FACScan flow cytometer (Becton Dickinson GmbH, Heidelberg, Germany).

[12] = test system: BetaD5; assay: Cell cycle analysis by flow cytometry; assay type: cell-based, mouse; conditions: IC50 concentration, 96 h
Description: as §6

[13] = test system: GammaA3; assay: Cell cycle analysis by flow cytometry; assay type: cell-based, mouse; conditions: IC50 concentration, 96 h
Description: as §6

[14] = test system: GammaD12; assay: Cell cycle analysis by flow cytometry; assay type: cell-based, mouse; conditions: IC50 concentration, 96 h
Description: as §6

[15] = test system: A549; assay: Cell cycle analysis by flow cytometry; assay type: cell-based, human; conditions: IC50 concentration, 96 h
Description: as §6

[16] = test system: CaCo2; assay: Cell cycle analysis by flow cytometry; assay type: cell-based, human; conditions: IC50 concentration, 96 h
Description: as §6

[17] = test system: HepG2; assay: Cell cycle analysis by flow cytometry; assay type: cell-based, human; conditions: IC50 concentration, 96 h
Description: as §6

[18] = 24 h, read-out: Calculated IC50 after single treatment for 24 h
[19] = 96 h, read-out: Calculated IC50 after daily treatment for 96 h

T1 sequence (P00519 whole entry): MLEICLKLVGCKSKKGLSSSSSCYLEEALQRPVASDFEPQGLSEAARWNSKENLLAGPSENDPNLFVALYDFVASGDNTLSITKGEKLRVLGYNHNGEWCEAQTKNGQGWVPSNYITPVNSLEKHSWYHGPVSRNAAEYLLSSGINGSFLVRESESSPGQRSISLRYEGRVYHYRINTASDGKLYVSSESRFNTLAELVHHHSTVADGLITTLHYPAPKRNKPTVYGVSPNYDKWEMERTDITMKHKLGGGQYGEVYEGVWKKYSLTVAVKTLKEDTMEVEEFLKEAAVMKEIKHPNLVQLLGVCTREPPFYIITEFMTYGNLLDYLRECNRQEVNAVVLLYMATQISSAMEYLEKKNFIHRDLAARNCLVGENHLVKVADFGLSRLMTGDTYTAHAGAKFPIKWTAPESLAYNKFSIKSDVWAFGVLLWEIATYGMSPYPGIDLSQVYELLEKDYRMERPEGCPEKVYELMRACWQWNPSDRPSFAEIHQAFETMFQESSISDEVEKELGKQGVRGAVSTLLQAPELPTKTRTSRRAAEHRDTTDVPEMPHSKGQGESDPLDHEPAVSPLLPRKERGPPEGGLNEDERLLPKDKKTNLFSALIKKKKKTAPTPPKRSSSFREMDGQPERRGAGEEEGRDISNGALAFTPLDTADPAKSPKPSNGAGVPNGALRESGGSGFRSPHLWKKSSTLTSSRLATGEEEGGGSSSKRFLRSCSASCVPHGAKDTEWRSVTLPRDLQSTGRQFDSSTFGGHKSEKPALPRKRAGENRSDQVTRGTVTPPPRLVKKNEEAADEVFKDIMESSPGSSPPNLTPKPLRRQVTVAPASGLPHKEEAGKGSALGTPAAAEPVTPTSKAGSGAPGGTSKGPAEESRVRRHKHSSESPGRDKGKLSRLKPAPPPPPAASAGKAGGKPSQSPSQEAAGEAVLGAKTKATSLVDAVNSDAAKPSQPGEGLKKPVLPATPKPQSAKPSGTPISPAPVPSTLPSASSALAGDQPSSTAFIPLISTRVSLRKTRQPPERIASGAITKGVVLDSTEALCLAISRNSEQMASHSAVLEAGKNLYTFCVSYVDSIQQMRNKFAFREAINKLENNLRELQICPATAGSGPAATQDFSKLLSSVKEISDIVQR
T2 sequence (P12931 whole entry): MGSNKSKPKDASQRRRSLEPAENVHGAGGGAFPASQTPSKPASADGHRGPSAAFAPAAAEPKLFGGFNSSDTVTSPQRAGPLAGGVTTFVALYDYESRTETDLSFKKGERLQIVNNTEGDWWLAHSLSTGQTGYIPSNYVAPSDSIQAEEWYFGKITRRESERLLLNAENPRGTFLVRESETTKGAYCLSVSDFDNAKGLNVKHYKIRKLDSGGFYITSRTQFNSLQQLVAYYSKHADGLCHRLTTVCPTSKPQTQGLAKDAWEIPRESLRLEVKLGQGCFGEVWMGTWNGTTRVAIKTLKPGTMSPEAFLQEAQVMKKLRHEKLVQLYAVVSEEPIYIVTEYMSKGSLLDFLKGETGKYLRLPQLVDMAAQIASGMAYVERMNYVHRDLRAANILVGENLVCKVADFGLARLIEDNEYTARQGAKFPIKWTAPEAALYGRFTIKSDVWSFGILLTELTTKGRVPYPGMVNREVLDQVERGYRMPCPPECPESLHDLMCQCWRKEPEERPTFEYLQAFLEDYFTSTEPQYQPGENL

Cc1ccc(NC(=O)c2ccc(CN3CCN(C)CC3)cc2)cc1Nc1nccc(-c2cccnc2)n1 [Imatinib, Imatinib mesylate]
Antiproliferative effect for leukaemia cells [1]: submicromolar range

CC(C)Sc1nc(NCCc2ccccc2)c2cnn(CC(Cl)c3ccccc3)c2n1 (stereo not drawn) [Si142]
Ki [2]: 0.12 µM
Ki [3]: 2 µM
IC50 [4, 18]: 40.4 ± 2.1 µM
IC50 [4, 19]: 5.3 ± 0.2 µM
IC50 [5, 18]: 11 ± 0.7 µM
IC50 [5, 19]: 8.7 ± 0.7 µM
IC50 [6, 18]: 18.7 ± 4 µM
IC50 [6, 19]: 7.1 ± 0.5 µM
IC50 [7, 18]: 11.8 ± 1.6 µM
IC50 [7, 19]: 7.7 ± 0.5 µM
IC50 ([8]; A549, 24 h, 24 h, read-out: Calculated IC50 after single treatment for 24 h): > 100 µM
IC50 ([8]; A549, 96 h, 96 h, read-out: Calculated IC50 after daily treatment for 96 h): 8.1 ± 0.7 µM
IC50 ([9]; Caco-2, 24 h, read-out: Calculated IC50 after single treatment for 24 h): 89.2 ± 4.6 µM
IC50 ([9]; Caco-2, 96 h, read-out: Calculated IC50 after daily treatment for 96 h): 6.8 ± 0.9 µM
IC50 [10, 18]: 89.2 ± 4.6 µM
IC50 [10, 19]: 16.9 ± 2.6 µM
Cells in G1 phase [11]: 71.3%
Cells in G2 phase [11]: 13.4%
Cells in S phase [11]: 15.3%
Cells in G1 phase [12]: 53.6%
Cells in G2 phase [12]: 25.8%
Cells in S phase [12]: 20.6%
Cells in G1 phase [13]: 67%
Cells in G2 phase [13]: 15.5%
Cells in S phase [13]: 17.5%
Cells in G1 phase [14]: 33.7%
Cells in G2 phase [14]: 6.6%
Cells in S phase [14]: 59.7%
Cells in G1 phase [15]: 75.4%
Cells in G2 phase [15]: 2.2%
Cells in S phase [15]: 25.7%
Cells in G1 phase [16]: 55.6%
Cells in G2 phase [16]: 11.5%
Cells in S phase [16]: 32.9%
Cells in G1 phase [17]: 53.5%
Cells in G2 phase [17]: 7.9%
Cells in S phase [17]: 38.6%
melting point: 125 to 126 °C

Reference: PMC2994747, “Molecular Characterization of c-Abl/c-Src Kinase Inhibitors Targeted against Murine Tumour Progenitor Cells that Express Stem Cell Markers” (PLoS ONE, 2010)
